Results: publication PMC4975955 (Journal of molecular biology, 2016)

Legend:
TmRibU = TmRibU (Thermotoga maritima, UniProt Q9X1G6, N123A); assay: thermal melting by analytical SEC peak height; assay type: binding; conditions: NG detergent; difference of mutant to wild-type complex, no apo reference
TmRibUΔCt = TmRibUΔCt (Thermotoga maritima, UniProt Q9X1G6); assay: X-ray crystallography, […] Å; assay type: binding; conditions: co-purified substrate; extracellular pocket of TM4-6 and Loop1-2
TmRibUΔCt, sequence (Q9X1G6 1-173, stated change not applied): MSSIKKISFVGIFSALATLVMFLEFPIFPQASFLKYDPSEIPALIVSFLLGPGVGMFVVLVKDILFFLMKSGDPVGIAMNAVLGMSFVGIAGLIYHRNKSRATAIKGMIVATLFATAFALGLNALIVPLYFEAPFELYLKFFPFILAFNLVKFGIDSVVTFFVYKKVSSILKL

TmRibU, sequence (Q9X1G6 whole entry N123A): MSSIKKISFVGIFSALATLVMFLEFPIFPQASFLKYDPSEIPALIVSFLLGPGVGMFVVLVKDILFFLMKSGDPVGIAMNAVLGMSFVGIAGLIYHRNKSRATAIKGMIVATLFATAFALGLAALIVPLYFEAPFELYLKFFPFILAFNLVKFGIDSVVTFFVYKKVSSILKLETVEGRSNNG

- decrease of Tm of riboflavin complex vs WT (TmRibU): ~ 23 °C
Compound: Cc1cc2nc3c(=O)[nH]c(=O)nc-3n(C[C@H](O)[C@H](O)[C@H](O)CO)c2cc1C [riboflavin]
- X-ray crystallography, 2.6 Å (also 3.2 and 3.4 Å) (TmRibUΔCt): we determined the crystal structure of riboflavin-bound TmRibU
